What was measured:
[1] = J. Ocular Pharmacol. 1988;1062:231; cited from earlier work
[2] = Diffusion/release of 5-FU through PVA membranes; type: in vitro ADME; details: heat treated PVA membrane
Text: Subconjunctival administration of 5-FU as an adjunct to filtration surgery in high risk glaucoma patients is attended by the necessity of multiple subconjunctival injections and the potentially serious complications due to delayed wound healing. Alternative delivery systems have been proposed including liposomes, topical administration, and sustained release polymers. […] Therefore, the rate of release was further decreased by layering EVA within the PVA to create a membrane system that was 6×8 mm in size.

[3] = J. Ocular Pharmacol. 1988;1062:231; cited from earlier work; remark: listed apart in the source
CMV retinitis [4] = details: intravitreal injections of 200 to 400 μg once or twice weekly; cited from earlier work
CMV retinitis [5] = details: intravenous; cited from earlier work
[6] = Device/drug stability after heat treatment (Example 2); type: physicochemical
rabbit retina = test: 6 mg bolus dose of intravitreal GCV: retinal toxicity in rabbit (Example 3); type: in vivo, New Zealand albino rabbits; details: 6 mg bolus dose intravitreal, two eyes
rabbit eye = system: rabbit eye; parameters: species or system New Zealand albino rabbits; details: in vivo
Procedure: New Zealand albino rabbits weighing 1.5 to 2 kg were used in this study. Anesthesia was provided with intramuscular ketamine HCl (40 mg/kg), attopine sulfate (0.1 mg/kg), xylazine HCl (10 mg/kg) and topical proparacaine (0.5%).
A baseline photopic electroretinogram (ERG) was recorded preoperatively in each rabbit using a corneal contact lens. A Gansfeld stimulus was used to improve standardization of results. After sedation, the rabbits were placed inside a Gansfeld stimulator 20 cm away from the flash unit. Flash (cone and rod response) and flicker (cone response) ERGs were done under light adapted conditions. Graphic measurements were recorded, and the waveform amplitudes and implicit times were calculated.
This was done because the pars plana of the New Zealand albino rabbit is poorly developed and it was therefore necessary to implant the devices and take vitreous samples through retina. The ERG was repeated four weeks later immediately prior to insertion of the device. […]
Vitreous samples were periodically removed using a 20 gauge needle on a tuberculin syringe. […] After removal, vitreous samples were stored at -60° C until analyzed by HPLC. […]
Vitreous samples were not collected from the treated eyes. […] In this group, devices were removed from the eyes and the amount of GCV still present determined by HPLC. […]

AIDS patients = details: human, in vivo; cited from earlier work

## O=c1[nH]cc(F)c(=O)[nH]1 [5-FU, 5-fluorouracil]
[1]
  release of 5-FU through PVA: PVA provided a linear release
[2]
  effect of heat treating the PVA membrane on 5-FU release rates: release rates could be markedly decreased
[3]
  permeability of EVA to 5-FU: EVA was impermeable to 5-FU

## Nc1nc(O)c2ncn(COC(CO)CO)c2n1 [GCV, ganciclovir]
CMV retinitis [4]
  effect on CMV retinitis: temporary remission of CMV retinitis in AIDS patients
CMV retinitis [5]
  bone marrow toxicity: bone marrow toxicity limits its usefulness
  effect on CMV retinitis in AIDS patients: effective in the treatment of CMV retinitis in AIDS patients
[6]; HPLC analysis
  drug loss or decomposition after heat treatment of ganciclovir pellet: no apparent drug loss or decomposition
[6]; individual component
  near IR after heat treatment: no change after heat treatment
Rabbit retina
  toxicity by indirect ophthalmoscopy: no evidence of toxicity
Rabbit eye
  observable retinal toxicity: No observable retinal toxicity

## Cc1cn([C@H]2C[C@H](N=[N+]=[N-])[C@@H](CO)O2)c(=O)[nH]c1=O [zidovudine]
AIDS patients
  effect in AIDS patients: prolong life and improve the immune function in AIDS patients

From patent publication US5378475A, “Sustained release drug delivery devices” (priority 1991, dated 1995)
